# Data published in patent US12357652B2, “Formulations of phosphoramidate derivatives of nucleoside drugs” (priority 2015, dated 2025).
# Where two headings read alike, the source gives them in different places.
# Tests used:
# [1] = Solubility of NUC-3373 in a range of pharmaceutically relevant solvents; format: physicochemical
# Excerpt: The solubility of NUC-3373 (mixture of diastereoisomers) in a range of solvents is shown in […]
# cancer models = details: versus 5-fluorouracil; cited from earlier work
# [2] = versus 5-FU; cited from earlier work
# [3] = Stability of NUC-3373 aqueous infusion solution in 250 ml 0.9% saline bags; format: physicochemical
# Procedure: The stability of the aqueous infusion solution was also evaluated using three different doses of NUC-3373 (1,000 mg, 2,000 mg and 3,000 mg) diluted in 250 ml 0.9% saline bags at two storage conditions (5° C. and 20° C.).
# cancer = assay: Clinical trial of NUC-3373; format: in vivo; details: infusion solutions prepared as in Example 3; early results
# Excerpt: In a clinical trial of NUC-3373, this administration methodology has allowed NUC-3373 to be successfully administered via a CVAD.
# [4] = Alternative aqueous infusion solutions of NUC-3373 (osmolarity, stability); format: physicochemical
# [5] = 1,000 mg NUC-3373 in 250 ml 0.9% saline infusion bag, 0 hours, 5° C.
# [6] = 1,000 mg NUC-3373 in 250 ml 0.9% saline infusion bag, 0 hours, 20° C.
# [7] = 1,000 mg NUC-3373 in 250 ml 0.9% saline infusion bag, 8 hours, 5° C.
# [8] = 1,000 mg NUC-3373 in 250 ml 0.9% saline infusion bag, 8 hours, 20° C.
# [9] = 1,000 mg NUC-3373 in 250 ml 0.9% saline infusion bag, 24 hours, 5° C.
# [10] = 1,000 mg NUC-3373 in 250 ml 0.9% saline infusion bag, 24 hours, 20° C.
# [11] = 1,000 mg NUC-3373 in 250 ml 0.9% saline infusion bag, 48 hours, 5° C.
# [12] = 1,000 mg NUC-3373 in 250 ml 0.9% saline infusion bag, 48 hours, 20° C.
# [13] = 2,000 mg NUC-3373 in 250 ml 0.9% saline infusion bag, 0 hours, 5° C.
# [14] = 2,000 mg NUC-3373 in 250 ml 0.9% saline infusion bag, 0 hours, 20° C.
# [15] = 2,000 mg NUC-3373 in 250 ml 0.9% saline infusion bag, 8 hours, 5° C.
# [16] = 2,000 mg NUC-3373 in 250 ml 0.9% saline infusion bag, 8 hours, 20° C.
# [17] = 2,000 mg NUC-3373 in 250 ml 0.9% saline infusion bag, 24 hours, 5° C.
# [18] = 2,000 mg NUC-3373 in 250 ml 0.9% saline infusion bag, 24 hours, 20° C.
# [19] = 2,000 mg NUC-3373 in 250 ml 0.9% saline infusion bag, 48 hours, 5° C.
# [20] = 2,000 mg NUC-3373 in 250 ml 0.9% saline infusion bag, 48 hours, 20° C.
# [21] = 3,000 mg NUC-3373 in 250 ml 0.9% saline infusion bag, 0 hours, 5° C.
# [22] = 3,000 mg NUC-3373 in 250 ml 0.9% saline infusion bag, 0 hours, 20° C.
# [23] = 3,000 mg NUC-3373 in 250 ml 0.9% saline infusion bag, 8 hours, 5° C.
# [24] = 3,000 mg NUC-3373 in 250 ml 0.9% saline infusion bag, 8 hours, 20° C.
# [25] = 3,000 mg NUC-3373 in 250 ml 0.9% saline infusion bag, 24 hours, 5° C.
# [26] = 3,000 mg NUC-3373 in 250 ml 0.9% saline infusion bag, 24 hours, 20° C.
# [27] = 3,000 mg NUC-3373 in 250 ml 0.9% saline infusion bag, 48 hours, 5° C.
# [28] = 3,000 mg NUC-3373 in 250 ml 0.9% saline infusion bag, 48 hours, 20° C.
structure (smiles),measurement,setting,value
"C[C@H](NP(=O)(OC[C@H]1O[C@@H](n2cc(F)c(=O)[nH]c2=O)CC1O)Oc1cccc2ccccc12)C(=O)OCc1ccccc1 (stereo partly drawn) [NUC-3373, 5-fluoro-2′-deoxyuridine-5′-O-[1-naphthyl (benzoxy-L-alaninyl)] phosphate]",Solubility,"[1]; DMA, organic solvent or mixture, read-out: Solubility",950 mg/mL
same,Solubility,"[1]; DMSO, organic solvent or mixture, read-out: Solubility",948 mg/mL
same,Solubility,"[1]; NMP, organic solvent or mixture, read-out: Solubility",705 mg/mL
same,Solubility,"[1]; PEG 400, organic solvent or mixture, read-out: Solubility",422 mg/mL
same,Solubility,[1]; Water,extremely low
same,Solubility,"[1]; ethanol, organic solvent or mixture, read-out: Solubility",778 mg/mL
same,Solubility,"[1]; propylene glycol, organic solvent or mixture, read-out: Solubility",449 mg/mL
same,Solubility,"[1]; water, read-out: Solubility",< 2 mg/mL
same,Activity in vitro,cancer models,outstanding and far superior to the results obtained with 5-fluorouracil
same,Tolerability,[2],significantly better tolerated than 5-FU
same,Assay content NUC-3373,[3]; [5],3.7 mg/mL
same,Osmolarity,[3]; [5],457 mosm/L H20
same,Purity,[3]; [5],96.2 % area
same,Total NUC-3373,[3]; [5],960.9 mg
same,pH,[3]; [5],5.5
same,Assay content NUC-3373,[3]; [6],3.9 mg/mL
same,Osmolarity,[3]; [6],462 mosm/L H20
same,Purity,[3]; [6],96.1 % area
same,Total NUC-3373,[3]; [6],1012.8 mg
same,pH,[3]; [6],5.6
same,Assay content NUC-3373,[3]; [7],3.6 mg/mL
same,Osmolarity,[3]; [7],450 mosm/L H20
same,Purity,[3]; [7],96.1 % area
same,Total NUC-3373,[3]; [7],934.9 mg
same,pH,[3]; [7],5.6
same,Assay content NUC-3373,[3]; [8],3.7 mg/mL
same,Osmolarity,[3]; [8],459 mosm/L H20
same,Purity,[3]; [8],96.1 % area
same,Total NUC-3373,[3]; [8],960.9 mg
same,pH,[3]; [8],5.5
same,Assay content NUC-3373,[3]; [9],3.6 mg/mL
same,Osmolarity,[3]; [9],456 mosm/L H20
same,Purity,[3]; [9],96.1 % area
same,Total NUC-3373,[3]; [9],934.9 mg
same,pH,[3]; [9],5.6
same,Assay content NUC-3373,[3]; [10],3.7 mg/mL
same,Osmolarity,[3]; [10],462 mosm/L H20
same,Purity,[3]; [10],96.1 % area
same,Total NUC-3373,[3]; [10],960.9 mg
same,pH,[3]; [10],5.8
same,Assay content NUC-3373,[3]; [11],3.6 mg/mL
same,Osmolarity,[3]; [11],451 mosm/L H20
same,Purity,[3]; [11],96.2 % area
same,Total NUC-3373,[3]; [11],934.9 mg
same,pH,[3]; [11],5.5
same,Assay content NUC-3373,[3]; [12],3.8 mg/mL
same,Osmolarity,[3]; [12],455 mosm/L H20
same,Purity,[3]; [12],96.1 % area
same,Total NUC-3373,[3]; [12],986.9 mg
same,pH,[3]; [12],5.5
same,Assay content NUC-3373,[3]; [13],7.2 mg/mL
same,Osmolarity,[3]; [13],639 mosm/L H20
same,Purity,[3]; [13],96.1 % area
same,Total NUC-3373,[3]; [13],1946 mg
same,pH,[3]; [13],5.5
same,Assay content NUC-3373,[3]; [14],7.4 mg/mL
same,Osmolarity,[3]; [14],646 mosm/L H20
same,Purity,[3]; [14],96.1 % area
same,Total NUC-3373,[3]; [14],2000 mg
same,pH,[3]; [14],5.5
same,Assay content NUC-3373,[3]; [15],7.0 mg/mL
same,Osmolarity,[3]; [15],637 mosm/L H20
same,Purity,[3]; [15],96.2 % area
same,Total NUC-3373,[3]; [15],1892 mg
same,pH,[3]; [15],5.5
same,Assay content NUC-3373,[3]; [16],7.5 mg/mL
same,Osmolarity,[3]; [16],633 mosm/L H20
same,Purity,[3]; [16],96.1 % area
same,Total NUC-3373,[3]; [16],2027 mg
same,pH,[3]; [16],5.5
same,Assay content NUC-3373,[3]; [17],6.9 mg/mL
same,Osmolarity,[3]; [17],638 mosm/L H20
same,Purity,[3]; [17],96.1 % area
same,Total NUC-3373,[3]; [17],1865 mg
same,pH,[3]; [17],5.5
same,Assay content NUC-3373,[3]; [18],7.2 mg/mL
same,Osmolarity,[3]; [18],639 mosm/L H20
same,Purity,[3]; [18],96.1 % area
same,Total NUC-3373,[3]; [18],1946 mg
same,pH,[3]; [18],5.5
same,Assay content NUC-3373,[3]; [19],7.0 mg/mL
same,Osmolarity,[3]; [19],635 mosm/L H20
same,Purity,[3]; [19],96.1 % area
same,Total NUC-3373,[3]; [19],1892 mg
same,pH,[3]; [19],5.4
same,Assay content NUC-3373,[3]; [20],7.1 mg/mL
same,Osmolarity,[3]; [20],632 mosm/L H20
same,Purity,[3]; [20],96.1 % area
same,Total NUC-3373,[3]; [20],1919 mg
same,pH,[3]; [20],5.4
same,Assay content NUC-3373,[3]; [21],10.2 mg/mL
same,Osmolarity,[3]; [21],831 mosm/L H20
same,Purity,[3]; [21],96.1 % area
same,Total NUC-3373,[3]; [21],2857 mg
same,pH,[3]; [21],5.5
same,Assay content NUC-3373,[3]; [22],10.4 mg/mL
same,Osmolarity,[3]; [22],818 mosm/L H20
same,Purity,[3]; [22],96.1 % area
same,Total NUC-3373,[3]; [22],2913 mg
same,pH,[3]; [22],5.5
same,Assay content NUC-3373,[3]; [23],10.4 mg/mL
same,Osmolarity,[3]; [23],823 mosm/L H20
same,Purity,[3]; [23],96.2 % area
same,Total NUC-3373,[3]; [23],2913 mg
same,pH,[3]; [23],5.5
same,Assay content NUC-3373,[3]; [24],10.5 mg/mL
same,Osmolarity,[3]; [24],812 mosm/L H20
same,Purity,[3]; [24],96.1 % area
same,Total NUC-3373,[3]; [24],2941 mg
same,pH,[3]; [24],5.5
same,Assay content NUC-3373,[3]; [25],10.1 mg/mL
same,Osmolarity,[3]; [25],825 mosm/L H20
same,Purity,[3]; [25],96.1 % area
same,Total NUC-3373,[3]; [25],2829 mg
same,pH,[3]; [25],5.5
same,Assay content NUC-3373,[3]; [26],10.4 mg/mL
same,Osmolarity,[3]; [26],817 mosm/L H20
same,Purity,[3]; [26],96.1 % area
same,Total NUC-3373,[3]; [26],2913 mg
same,pH,[3]; [26],5.5
same,Assay content NUC-3373,[3]; [27],10.0 mg/mL
same,Osmolarity,[3]; [27],821 mosm/L H20
same,Purity,[3]; [27],96.2 % area
same,Total NUC-3373,[3]; [27],2801 mg
same,pH,[3]; [27],5.6
same,Assay content NUC-3373,[3]; [28],10.1 mg/mL
same,Osmolarity,[3]; [28],812 mosm/L H20
same,Purity,[3]; [28],96.1 % area
same,Total NUC-3373,[3]; [28],2829 mg
same,pH,[3]; [28],5.4
same,Stability,"[3]; aqueous infusion solutions at all dose strengths (1,000 mg, 2,000 mg, 3,000 mg in 250 ml 0.9% saline), up to 48 hours at 5° C. and 20° C.",stable
same,Efficacy in treating cancer,cancer,some efficacy in treating cancer
same,Osmolarity,"[4]; high dose (3,000 mg) NUC-3373 in 500 ml 0.9% saline infusion bag",524 mosm/1
same,Osmolarity,[4]; high dose NUC-3373 (10 mg/ml) using 0.45% saline,715 mosm/l H2O
same,Osmolarity,[4]; high dose NUC-3373 (10 mg/ml) using WFI,557 mosm/l H2O
same,Osmolarity,"[4]; high dose NUC-3373 (10 mg/ml; 3,000 mg) in 250 ml 0.9% saline",812 mosm/1
